The numbers were not newly measured in US7320970B2, “Low dose estrogen interrupted hormone replacement therapy” (Duramed Pharmaceutials, Inc., priority 1999, dated 2008), which cites them from elsewhere.

Data set [1] concerns the target T1, human sex-hormone-binding globulin (SHBG) (Homo sapiens, UniProt P04278).
T1 sequence (P04278 30-402): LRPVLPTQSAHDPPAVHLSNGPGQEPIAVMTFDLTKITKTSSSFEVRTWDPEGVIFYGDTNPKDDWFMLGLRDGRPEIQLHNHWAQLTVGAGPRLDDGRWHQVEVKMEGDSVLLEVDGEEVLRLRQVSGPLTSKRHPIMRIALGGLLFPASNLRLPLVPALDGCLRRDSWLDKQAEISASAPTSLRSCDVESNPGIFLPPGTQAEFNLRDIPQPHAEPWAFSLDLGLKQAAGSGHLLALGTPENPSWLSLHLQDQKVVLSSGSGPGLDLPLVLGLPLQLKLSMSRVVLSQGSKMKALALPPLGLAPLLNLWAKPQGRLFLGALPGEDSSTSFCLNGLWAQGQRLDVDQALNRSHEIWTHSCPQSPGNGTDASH

Turning to `CC(=O)O[C@]1(C(C)=O)CC[C@H]2[C@@H]3C=C(C)C4=CC(=O)CC[C@]4(C)[C@H]3CC[C@@]21C` [megestrol acetate], the “decrease in the frequency of hot flushes” value in the data set on hot flushes (dose of 20 to 80 mg/day, versus 21 percent with placebo) is given as 85%. For the compound `C#C[C@]1(OC(C)=O)CC[C@H]2[C@@H]3CCC4=C/C(=N/O)CC[C@@H]4[C@H]3CC[C@@]21CC` [norgestimate, D-17β-acetoxy-B-ethyl-17α ethinyl-gon-4-en-3-one oxime], the “affinity for SHBG” value in data set [1] is “lack of affinity for SHBG”. Further, the “binding to progestin receptors” value with progestin receptors is on record as “binds to progestin receptors”. `C#C[C@]1(OC(C)=O)CC[C@H]2[C@@H]3CCC4=CC(=O)CC[C@@H]4[C@H]3CC[C@@]21C` [norethindrone acetate]: the “effectiveness against hot flushes” value in the data set on hot flushes (10 mg daily) is listed as “effective”.
